Laboratory results taken from patent US20230085307A1, “PYRIDAZINONE COMPOUND AND HERBICIDE” (NISSAN CHEMICAL CORPORATION, priority 2019, published 2023).

Experiments:
barnyard grass [1] = test: Test Example 4: herbicidal effect by soil treatment (Table 19, symbol H); assay type: in vivo, barnyard grass (Echinochloa crus-galli)
How it was run: (§1)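 Emulsion of test compound, water-diluted to predetermined amount, sprayed on soil after sowing (seed depth ~1.5 cm, sterilized diluvial soil). Greenhouse, 25–30° C. Effect graded at three weeks post-spray.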

southern crabgrass [2] = test: Test Example 5: herbicidal effect by foliage application, plastic box (Table 20, symbol F); assay type: in vivo, southern crabgrass (Digitaria ciliaris); conditions: foliage application, three weeks after application
How it was run: (§2)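 Post-emergence foliar test in sterilized diluvial soil. Compound applied as water-diluted emulsion at a predetermined rate to 14-day-old plants; evaluation at three weeks.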

velvetleaf [3] = test: Test Example 5: herbicidal effect by foliage application, plastic box (Table 20, symbol M); assay type: in vivo, velvetleaf (Abutilon theophrasti); conditions: foliage application, three weeks after application
How it was run: as §2

chickweed [4] = test: Test Example 5: herbicidal effect by foliage application, plastic box (Table 20, symbol P); assay type: in vivo, common chickweed (Stellaria media); conditions: foliage application, three weeks after application
How it was run: as §2

late watergrass = test: Test Example 1: herbicidal activity, application before weed generation under submerged conditions (Table 16, symbol A); assay type: in vivo, late watergrass (Echinochloa oryzicola)
How it was run: (§3)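 Alluvial soil was flooded to 4 cm depth, weed seeds were sown mixed and 2.5-leaf rice seedlings were transplanted. On sowing day, the compound's emulsion, diluted in water to a set dose, was applied to the water surface. Plants grew at 25–30 °C and were scored 0–5 after three weeks.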

Chinese sprangletop = test: Test Example 3: herbicidal effect by foliage application, Wagner pot (Table 18, symbol D); assay type: in vivo, chinese sprangletop (Leptochloa chinensis)
How it was run: (§4)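 Plants were sown in alluvial soil held under 0.1–0.5 cm standing water and grown 14 days in a greenhouse at 25–30 °C. An emulsifiable formulation, water-diluted to the set dose, was then sprayed onto the foliage, and effects were scored three weeks later using previously defined criteria.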

windgrass [5] = test: Test Example 4: herbicidal effect by soil treatment (Table 19, symbol L); assay type: in vivo, windgrass (Apera spica-venti)
How it was run: as §1

wild oat [6] = test: Test Example 4: herbicidal effect by soil treatment (Table 19, symbol I); assay type: in vivo, wild oat (Avena fatua)
How it was run: as §1

barnyard grass [7] = test: Test Example 3: herbicidal effect by foliage application, Wagner pot (Table 18, symbol H); assay type: in vivo, barnyard grass (Echinochloa crus-galli)
How it was run: as §4

Italian ryegrass [8] = test: Test Example 5: herbicidal effect by foliage application, plastic box (Table 20, symbol K); assay type: in vivo, Italian ryegrass (Lolium multiflorum); conditions: foliage application, three weeks after application
How it was run: as §2

Japanese bulrush = test: Test Example 1: herbicidal activity, application before weed generation under submerged conditions (Table 16, symbol B); assay type: in vivo, Japanese bulrush (Schoenoplectus juncoides)
How it was run: as §3

redroot pigweed [9] = test: Test Example 4: herbicidal effect by soil treatment (Table 19, symbol N); assay type: in vivo, redroot pigweed (Amaranthus retroflexus)
How it was run: as §1

blackgrass [10] = test: Test Example 5: herbicidal effect by foliage application, plastic box (Table 20, symbol J); assay type: in vivo, blackgrass (Alopecurus myosuroides); conditions: foliage application, three weeks after application
How it was run: as §2

southern crabgrass [11] = test: Test Example 4: herbicidal effect by soil treatment (Table 19, symbol F); assay type: in vivo, southern crabgrass (Digitaria ciliaris)
How it was run: as §1

wild oat [12] = test: Test Example 5: herbicidal effect by foliage application, plastic box (Table 20, symbol I); assay type: in vivo, wild oat (Avena fatua); conditions: foliage application, three weeks after application
How it was run: as §2

blackgrass [13] = test: Test Example 4: herbicidal effect by soil treatment (Table 19, symbol J); assay type: in vivo, blackgrass (Alopecurus myosuroides)
How it was run: as §1

Italian ryegrass [14] = test: Test Example 4: herbicidal effect by soil treatment (Table 19, symbol K); assay type: in vivo, Italian ryegrass (Lolium multiflorum)
How it was run: as §1

lambsquarters [15] = test: Test Example 4: herbicidal effect by soil treatment (Table 19, symbol O); assay type: in vivo, lambsquarters (Chenopodium album)
How it was run: as §1

velvetleaf [16] = test: Test Example 4: herbicidal effect by soil treatment (Table 19, symbol M); assay type: in vivo, velvetleaf (Abutilon theophrasti)
How it was run: as §1

windgrass [17] = test: Test Example 5: herbicidal effect by foliage application, plastic box (Table 20, symbol L); assay type: in vivo, windgrass (Apera spica-venti); conditions: foliage application, three weeks after application
How it was run: as §2

persian speedwell [18] = test: Test Example 5: herbicidal effect by foliage application, plastic box (Table 20, symbol R); assay type: in vivo, Persian speedwell (Veronica persica); conditions: foliage application, three weeks after application
How it was run: as §2

persian speedwell [19] = test: Test Example 4: herbicidal effect by soil treatment (Table 19, symbol R); assay type: in vivo, Persian speedwell (Veronica persica)
How it was run: as §1

green foxtail [20] = test: Test Example 5: herbicidal effect by foliage application, plastic box (Table 20, symbol G); assay type: in vivo, green foxtail (Setaria viridis); conditions: foliage application, three weeks after application
How it was run: as §2

chickweed [21] = test: Test Example 4: herbicidal effect by soil treatment (Table 19, symbol P); assay type: in vivo, common chickweed (Stellaria media)
How it was run: as §1

redroot pigweed [22] = test: Test Example 5: herbicidal effect by foliage application, plastic box (Table 20, symbol N); assay type: in vivo, redroot pigweed (Amaranthus retroflexus); conditions: foliage application, three weeks after application
How it was run: as §2

green foxtail [23] = test: Test Example 4: herbicidal effect by soil treatment (Table 19, symbol G); assay type: in vivo, green foxtail (Setaria viridis)
How it was run: as §1

lambsquarters [24] = test: Test Example 5: herbicidal effect by foliage application, plastic box (Table 20, symbol O); assay type: in vivo, lambsquarters (Chenopodium album); conditions: foliage application, three weeks after application
How it was run: as §2

rice flat sedge = test: Test Example 3: herbicidal effect by foliage application, Wagner pot (Table 18, symbol E); assay type: in vivo, rice flat sedge (Cyperus iria)
How it was run: as §4

barnyard grass [25] = test: Test Example 5: herbicidal effect by foliage application, plastic box (Table 20, symbol H); assay type: in vivo, barnyard grass (Echinochloa crus-galli); conditions: foliage application, three weeks after application
How it was run: as §2

oval-leafed pondweed = test: Test Example 1: herbicidal activity, application before weed generation under submerged conditions (Table 16, symbol C); assay type: in vivo, oval-leafed pondweed (Monochoria vaginalis)
How it was run: as §3

[26] = amount of applied herbicide 272 g/ha
[27] = amount of applied herbicide 320 g/ha

Compound: COc1cc(F)ccc1-c1sc2ccccc2c1-c1c(O)c(C)nn(C)c1=O [1-055]
- herbicidal effect rating, H: barnyard grass (barnyard grass [1]; [26]): 4 (Herbicidal rate of 70% or more and less than 90%)
- herbicidal effect grade, F: southern crabgrass (southern crabgrass [2]; 272 g/ha): 4 (Herbicidal rate of 70% or more and less than 90%)
- herbicidal effect grade, M: velvetleaf (velvetleaf [3]; 272 g/ha): 3 (Herbicidal rate of 40% or more and less than 70%)
- herbicidal effect grade, P: chickweed (chickweed [4]; 272 g/ha): 5 (Herbicidal rate of 90% or more (almost completely withered))
- Herbicidal effect on A: late watergrass (grade 0-5) (late watergrass; 272 g/ha applied herbicide): 4 (Herbicidal rate of 70% or more and less than 90%)
- herbicidal effect on D (Chinese sprangletop), rating 0-5 (Chinese sprangletop; 272 g/ha): 2 (Herbicidal rate of 20% or more and less than 40%)
- herbicidal effect rating, L: windgrass (windgrass [5]; [26]): 3 (Herbicidal rate of 40% or more and less than 70%)
- herbicidal effect rating, I: wild oat (wild oat [6]; [26]): 3 (Herbicidal rate of 40% or more and less than 70%)
- herbicidal effect on H (barnyard grass), rating 0-5 (barnyard grass [7]; 272 g/ha): 5 (Herbicidal rate of 90% or more (almost completely withered))
- herbicidal effect grade, K: Italian ryegrass (Italian ryegrass [8]; 272 g/ha): 4 (Herbicidal rate of 70% or more and less than 90%)
- Herbicidal effect on B: Japanese bulrush (grade 0-5) (Japanese bulrush; 272 g/ha applied herbicide): 0 (Herbicidal rate of 5% or less (almost no effect))
- herbicidal effect rating, N: redroot pigweed (redroot pigweed [9]; [26]): 5 (Herbicidal rate of 90% or more (almost completely withered))
- herbicidal effect grade, J: blackgrass (blackgrass [10]; 272 g/ha): 5 (Herbicidal rate of 90% or more (almost completely withered))
- herbicidal effect rating, F: southern crabgrass (southern crabgrass [11]; [26]): 2 (Herbicidal rate of 20% or more and less than 40%)
- herbicidal effect grade, I: wild oat (wild oat [12]; 272 g/ha): 5 (Herbicidal rate of 90% or more (almost completely withered))
- herbicidal effect rating, J: blackgrass (blackgrass [13]; [26]): 3 (Herbicidal rate of 40% or more and less than 70%)
- herbicidal effect rating, K: Italian ryegrass (Italian ryegrass [14]; [26]): 3 (Herbicidal rate of 40% or more and less than 70%)
- herbicidal effect rating, O: lambsquarters (lambsquarters [15]; [26]): 4 (Herbicidal rate of 70% or more and less than 90%)
- herbicidal effect rating, M: velvetleaf (velvetleaf [16]; [26]): 0 (Herbicidal rate of 5% or less (almost no effect))
- herbicidal effect grade, L: windgrass (windgrass [17]; 272 g/ha): 5 (Herbicidal rate of 90% or more (almost completely withered))
- herbicidal effect grade, R: persian speedwell (persian speedwell [18]; 272 g/ha): 4 (Herbicidal rate of 70% or more and less than 90%)
- herbicidal effect rating, R: persian speedwell (persian speedwell [19]; [26]): 5 (Herbicidal rate of 90% or more (almost completely withered))
- herbicidal effect grade, G: green foxtail (green foxtail [20]; 272 g/ha): 4 (Herbicidal rate of 70% or more and less than 90%)
- herbicidal effect rating, P: chickweed (chickweed [21]; [26]): 5 (Herbicidal rate of 90% or more (almost completely withered))
- herbicidal effect grade, N: redroot pigweed (redroot pigweed [22]; 272 g/ha): 3 (Herbicidal rate of 40% or more and less than 70%)
- herbicidal effect rating, G: green foxtail (green foxtail [23]; [26]): 5 (Herbicidal rate of 90% or more (almost completely withered))
- herbicidal effect grade, O: lambsquarters (lambsquarters [24]; 272 g/ha): 2 (Herbicidal rate of 20% or more and less than 40%)
- herbicidal effect on E (rice flat sedge), rating 0-5 (rice flat sedge; 272 g/ha): 5 (Herbicidal rate of 90% or more (almost completely withered))
- herbicidal effect grade, H: barnyard grass (barnyard grass [25]; 272 g/ha): 4 (Herbicidal rate of 70% or more and less than 90%)
- Herbicidal effect on C: oval-leafed pondweed (grade 0-5) (oval-leafed pondweed; 272 g/ha applied herbicide): 0 (Herbicidal rate of 5% or less (almost no effect))

Compound: CCCC(=O)Oc1c(C)nn(C)c(=O)c1-c1c(-c2cc(F)ccc2OC)sc2ccccc12 [1-059]
- herbicidal effect rating, H: barnyard grass (barnyard grass [1]; [27]): 3 (Herbicidal rate of 40% or more and less than 70%)
- herbicidal effect grade, F: southern crabgrass (southern crabgrass [2]; 320 g/ha): 0 (Herbicidal rate of 5% or less (almost no effect))
- herbicidal effect grade, M: velvetleaf (velvetleaf [3]; 320 g/ha): 2 (Herbicidal rate of 20% or more and less than 40%)
- herbicidal effect grade, P: chickweed (chickweed [4]; 320 g/ha): 5 (Herbicidal rate of 90% or more (almost completely withered))
- Herbicidal effect on A: late watergrass (grade 0-5) (late watergrass; 320 g/ha applied herbicide): 3 (Herbicidal rate of 40% or more and less than 70%)
- herbicidal effect on D (Chinese sprangletop), rating 0-5 (Chinese sprangletop; 320 g/ha): 1 (Herbicidal rate of 5% or more and less than 20%)
- herbicidal effect rating, L: windgrass (windgrass [5]; [27]): 3 (Herbicidal rate of 40% or more and less than 70%)
- herbicidal effect rating, I: wild oat (wild oat [6]; [27]): 0 (Herbicidal rate of 5% or less (almost no effect))
- herbicidal effect on H (barnyard grass), rating 0-5 (barnyard grass [7]; 320 g/ha): 3 (Herbicidal rate of 40% or more and less than 70%)
- herbicidal effect grade, K: Italian ryegrass (Italian ryegrass [8]; 320 g/ha): 2 (Herbicidal rate of 20% or more and less than 40%)
- Herbicidal effect on B: Japanese bulrush (grade 0-5) (Japanese bulrush; 320 g/ha applied herbicide): 2 (Herbicidal rate of 20% or more and less than 40%)
- herbicidal effect rating, N: redroot pigweed (redroot pigweed [9]; [27]): 0 (Herbicidal rate of 5% or less (almost no effect))
- herbicidal effect grade, J: blackgrass (blackgrass [10]; 320 g/ha): 3 (Herbicidal rate of 40% or more and less than 70%)
- herbicidal effect rating, F: southern crabgrass (southern crabgrass [11]; [27]): 0 (Herbicidal rate of 5% or less (almost no effect))
- herbicidal effect grade, I: wild oat (wild oat [12]; 320 g/ha): 2 (Herbicidal rate of 20% or more and less than 40%)
- herbicidal effect rating, J: blackgrass (blackgrass [13]; [27]): 3 (Herbicidal rate of 40% or more and less than 70%)
- herbicidal effect rating, K: Italian ryegrass (Italian ryegrass [14]; [27]): 1 (Herbicidal rate of 5% or more and less than 20%)
- herbicidal effect rating, O: lambsquarters (lambsquarters [15]; [27]): 3 (Herbicidal rate of 40% or more and less than 70%)
- herbicidal effect rating, M: velvetleaf (velvetleaf [16]; [27]): 0 (Herbicidal rate of 5% or less (almost no effect))
- herbicidal effect grade, L: windgrass (windgrass [17]; 320 g/ha): 4 (Herbicidal rate of 70% or more and less than 90%)
- herbicidal effect grade, R: persian speedwell (persian speedwell [18]; 320 g/ha): 2 (Herbicidal rate of 20% or more and less than 40%)
- herbicidal effect rating, R: persian speedwell (persian speedwell [19]; [27]): 0 (Herbicidal rate of 5% or less (almost no effect))
- herbicidal effect grade, G: green foxtail (green foxtail [20]; 320 g/ha): 2 (Herbicidal rate of 20% or more and less than 40%)
- herbicidal effect rating, P: chickweed (chickweed [21]; [27]): 0 (Herbicidal rate of 5% or less (almost no effect))
- herbicidal effect grade, N: redroot pigweed (redroot pigweed [22]; 320 g/ha): 3 (Herbicidal rate of 40% or more and less than 70%)
- herbicidal effect rating, G: green foxtail (green foxtail [23]; [27]): 3 (Herbicidal rate of 40% or more and less than 70%)
- herbicidal effect grade, O: lambsquarters (lambsquarters [24]; 320 g/ha): 3 (Herbicidal rate of 40% or more and less than 70%)
- herbicidal effect on E (rice flat sedge), rating 0-5 (rice flat sedge; 320 g/ha): 5 (Herbicidal rate of 90% or more (almost completely withered))
- herbicidal effect grade, H: barnyard grass (barnyard grass [25]; 320 g/ha): 3 (Herbicidal rate of 40% or more and less than 70%)
- Herbicidal effect on C: oval-leafed pondweed (grade 0-5) (oval-leafed pondweed; 320 g/ha applied herbicide): 1 (Herbicidal rate of 5% or more and less than 20%)
